Data taken from ChEMBL document CHEMBL5143563, “Discovery of DS-3801b, a non-macrolide GPR38 agonist with N-methylanilide structure” (Bioorg Med Chem Lett, 2022).

Legend:
[1] = Lipophilicity, logD of the compound at pH 7.4; settings: buffer
[2] = molecular target: T1, CYP3A4 (Homo sapiens, UniProt P08684); assay: Inhibition of CYP3A4 in human liver microsomes assessed as remaining activity; assay type: ADME, Microsome; design: concentration or dose not given beside the values
[3] = Agonist activity at rabbit GPR38 expressed in COS-7 cells; assay type: cell-based; settings: Oryctolagus cuniculus
[4] = molecular target: T2, Motilin receptor (Homo sapiens, UniProt O43193); assay: Agonist activity at human GPR38 expressed in COS-7 cells; assay type: functional, cell-based
[5] = Ex vivo agonist activity at GPR38 in rabbit duodenum muscle tissue assessed as intestinal contractile activity; assay type: tissue-based, Oryctolagus cuniculus
[6] = molecular target: T2, Motilin receptor; assay: Potency index, ratio of GSK962040 EC50 to test compound EC50 for human GPR38 expressed in COS-7 cells; assay type: functional, cell-based
[7] = species: Oryctolagus cuniculus; assay: Potency index, ratio of GSK962040 EC50 to test compound EC50 for Ex vivo agonist activity at GPR38 in rabbit duodenum muscle tissue; assay type: tissue-based
[8] = Effective permeability of the compound at pH 5 by PAMPA assay; assay type: ADME; settings: read-out: Peff
[9] = Effective permeability of the compound at pH 7.4 by PAMPA assay; assay type: ADME; settings: read-out: Peff
[10] = molecular target: T3, CYP1A2 (Homo sapiens, UniProt P05177); assay: Inhibition of CYP1A2 (unknown origin) at 10 uM; assay type: ADME
T3 sequence (P05177 whole entry): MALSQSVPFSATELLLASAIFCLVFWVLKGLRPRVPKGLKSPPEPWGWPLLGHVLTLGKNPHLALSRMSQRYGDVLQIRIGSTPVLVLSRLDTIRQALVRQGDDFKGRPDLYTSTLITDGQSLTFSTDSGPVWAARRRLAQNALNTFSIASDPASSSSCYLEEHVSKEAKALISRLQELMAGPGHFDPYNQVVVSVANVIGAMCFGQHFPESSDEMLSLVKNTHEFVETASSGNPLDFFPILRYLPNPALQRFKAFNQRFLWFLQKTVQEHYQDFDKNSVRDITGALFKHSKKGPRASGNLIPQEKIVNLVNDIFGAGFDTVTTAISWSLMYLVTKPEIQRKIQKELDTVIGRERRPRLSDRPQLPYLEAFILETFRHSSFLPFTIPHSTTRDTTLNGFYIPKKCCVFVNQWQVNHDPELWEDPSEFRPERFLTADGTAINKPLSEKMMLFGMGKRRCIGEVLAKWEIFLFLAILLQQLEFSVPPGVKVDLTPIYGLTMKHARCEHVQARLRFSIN

[11] = molecular target: CYP2D6 (Homo sapiens, UniProt P10635); assay: Inhibition of CYP2D6 (unknown origin) at 10 uM; assay type: ADME
[12] = Protein binding in rabbit; assay type: ADME, Oryctolagus cuniculus; settings: read-out: PB (converted)
[13] = Protein binding in human; assay type: ADME; settings: read-out: PB (converted)
[14] = molecular target: T1, CYP3A4; assay: Inhibition of CYP3A4 (unknown origin) at 10 uM; assay type: ADME
[15] = molecular target: CYP2C9 (Homo sapiens, UniProt P11712); assay: Inhibition of CYP2C9 (unknown origin) at 10 uM; assay type: ADME
Sequence of CYP2C9 (P11712 whole entry): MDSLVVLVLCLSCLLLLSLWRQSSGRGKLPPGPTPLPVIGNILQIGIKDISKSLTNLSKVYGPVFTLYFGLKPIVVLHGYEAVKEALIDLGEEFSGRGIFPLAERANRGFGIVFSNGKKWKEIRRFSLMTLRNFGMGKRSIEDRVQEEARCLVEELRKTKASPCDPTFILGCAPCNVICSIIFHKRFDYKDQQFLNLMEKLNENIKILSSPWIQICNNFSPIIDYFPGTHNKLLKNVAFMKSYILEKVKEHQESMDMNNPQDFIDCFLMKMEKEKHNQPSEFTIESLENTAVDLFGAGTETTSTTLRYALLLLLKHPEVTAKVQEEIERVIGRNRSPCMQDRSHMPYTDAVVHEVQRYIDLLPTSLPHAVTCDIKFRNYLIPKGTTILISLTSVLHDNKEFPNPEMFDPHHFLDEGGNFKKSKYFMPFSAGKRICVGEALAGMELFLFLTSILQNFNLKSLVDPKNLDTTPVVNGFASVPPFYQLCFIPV

T1 sequence (P08684 whole entry): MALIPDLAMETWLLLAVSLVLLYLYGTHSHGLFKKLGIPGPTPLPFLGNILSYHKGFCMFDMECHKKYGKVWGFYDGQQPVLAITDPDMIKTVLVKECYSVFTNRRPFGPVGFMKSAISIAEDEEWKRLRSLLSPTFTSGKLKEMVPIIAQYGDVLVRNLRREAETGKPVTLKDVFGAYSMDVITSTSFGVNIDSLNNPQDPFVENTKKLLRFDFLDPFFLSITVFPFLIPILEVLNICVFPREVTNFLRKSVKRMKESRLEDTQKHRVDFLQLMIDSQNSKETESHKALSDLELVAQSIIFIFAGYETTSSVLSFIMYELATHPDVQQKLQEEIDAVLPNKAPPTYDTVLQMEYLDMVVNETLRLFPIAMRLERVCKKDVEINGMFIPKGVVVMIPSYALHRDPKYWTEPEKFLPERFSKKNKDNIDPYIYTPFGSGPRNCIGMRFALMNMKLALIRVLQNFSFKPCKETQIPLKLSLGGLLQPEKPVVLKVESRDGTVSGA
T2 sequence (O43193 whole entry): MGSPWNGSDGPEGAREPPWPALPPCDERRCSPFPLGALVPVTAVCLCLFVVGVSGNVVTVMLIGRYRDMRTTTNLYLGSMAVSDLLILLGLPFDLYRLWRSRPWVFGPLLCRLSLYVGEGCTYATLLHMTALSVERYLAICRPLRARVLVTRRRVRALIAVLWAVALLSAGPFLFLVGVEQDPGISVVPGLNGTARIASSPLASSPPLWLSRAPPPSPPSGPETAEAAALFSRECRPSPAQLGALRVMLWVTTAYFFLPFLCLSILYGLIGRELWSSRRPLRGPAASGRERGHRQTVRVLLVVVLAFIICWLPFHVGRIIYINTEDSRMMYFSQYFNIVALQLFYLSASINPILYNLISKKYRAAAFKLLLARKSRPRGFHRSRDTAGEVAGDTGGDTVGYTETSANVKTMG
Sequence of CYP2D6 (P10635 whole entry): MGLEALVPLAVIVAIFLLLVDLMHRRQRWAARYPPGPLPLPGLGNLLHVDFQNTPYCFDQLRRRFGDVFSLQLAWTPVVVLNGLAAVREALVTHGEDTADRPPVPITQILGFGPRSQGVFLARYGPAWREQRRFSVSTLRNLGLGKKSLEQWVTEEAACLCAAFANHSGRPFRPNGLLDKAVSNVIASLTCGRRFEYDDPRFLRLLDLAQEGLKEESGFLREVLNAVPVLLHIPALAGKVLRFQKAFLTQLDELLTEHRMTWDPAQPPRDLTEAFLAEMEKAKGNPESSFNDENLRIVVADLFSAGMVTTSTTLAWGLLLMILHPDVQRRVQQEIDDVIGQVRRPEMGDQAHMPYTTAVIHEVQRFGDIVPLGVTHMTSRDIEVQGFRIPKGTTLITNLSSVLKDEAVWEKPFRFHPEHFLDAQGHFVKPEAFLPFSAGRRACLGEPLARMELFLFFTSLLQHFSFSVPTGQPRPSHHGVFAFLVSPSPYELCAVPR

Compound | logD [1] | activity [2] [%] | EC50 [3] [nM] | EC50 [4] [nM] | other results
Cc1cc(N(C)C(=O)[C@H]2CC[C@H](Oc3cccc(CCO)c3)CC2)ccc1CN1CCN[C@@H](C)C1 | 1.3 | 60 | 0.51 | 4.7 | 
Cc1cc(N(C)C(=O)[C@H]2CC[C@H](Oc3cc(CO)ccc3C)CC2)ccc1CN1CCN[C@@H](C)C1 |  | 54 | 1 | 5.6 | 
C[C@H]1CN(Cc2ccc(CC(=O)N3CCC(Nc4cccc(F)c4)CC3)cc2)CCN1 [CAMICINAL] |  |  | 42 | 970 | EC50 [5]: 82.6 nM
Cc1cc(N(C)C(=O)[C@H]2CC[C@H](Oc3ccc(F)cn3)CC2)ccc1CN1CCN[C@@H](C)C1 | 1.9 | 47 | 0.26 | 4.6 | 
CC[C@H]1CN(Cc2ccc(N(C)C(=O)[C@H]3CC[C@H](Oc4ccnc(C#N)c4)CC3)cc2C)CCN1 | 1 | 68 | 1.2 | 11 | EC50 [5]: 4.8 nM
CC[C@H]1CN(Cc2ccc(N(C)C(=O)[C@H]3CC[C@H](Oc4ccc(F)cc4)CC3)cc2C)CCN1 |  | 29 |  | 350 | 
Cc1cc(N(C)C(=O)[C@H]2CC[C@H](Oc3cccc(C(=O)O)c3)CC2)ccc1CN1CCN[C@@H](C)C1 | -0.4 | 101 | 1300 | > 10000 | 
C[C@H]1CN(Cc2ccc(NC(=O)[C@H]3CC[C@H](Oc4ccc(F)cc4)CC3)cc2)CCN1 |  |  | > 10000 | > 10000 | 
CC[C@H](C)[C@H](NC(=O)[C@@H]1CCCN1C(=O)[C@@H](NC(=O)[C@@H](N)Cc1ccccc1)C(C)C)C(=O)N[C@@H](Cc1ccccc1)C(=O)N[C@H](C(=O)N[C@@H](Cc1ccc(O)cc1)C(=O)NCC(=O)N[C@@H](CCC(=O)O)C(=O)N[C@@H](CC(C)C)C(=O)N[C@@H](CCC(N)=O)C(=O)N[C@@H](CCCNC(=N)N)C(=O)N[C@@H](CCSC)C(=O)N[C@@H](CCC(N)=O)C(=O)N[C@@H](CCC(=O)O)C(=O)N[C@@H](CCCCN)C(=O)N[C@@H](CCC(=O)O)C(=O)N[C@@H](CCCNC(=N)N)C(=O)N[C@@H](CC(N)=O)C(=O)N[C@@H](CCCCN)C(=O)NCC(=O)N[C@@H](CCC(N)=O)C(=O)O)[C@@H](C)O |  |  | 0.16 | 0.97 | EC50 [5]: 0.23 nM
Cc1cc(N(C)C(=O)[C@H]2CC[C@H](Oc3cccc(CC(=O)NC(C)C)c3)CC2)ccc1CN1CCN[C@@H](C)C1 | 1.8 | 68 | 0.26 | 1.6 | 
Cc1cc(CN2CCN[C@@H](C)C2)ccc1N(C)C(=O)[C@H]1CC[C@H](Oc2ccc(F)cc2)CC1 |  | 40 |  | 240 | 
Cc1cc(N(C)C(=O)[C@H]2CC[C@H](Oc3cccc(CC(C)(C)O)c3)CC2)ccc1CN1CCN[C@@H](C)C1 | 2 | 50 | 1.1 | 4.3 | 
C[C@H]1CN(Cc2ccc(-c3cccnc3N3CCC(Nc4cccc(F)c4)CC3)cc2)CCN1 |  |  | 1.7 | 18 | 
C[C@H]1CN(Cc2ccc(N(C)C(=O)[C@H]3CC[C@H](Oc4ccc(F)cc4)CC3)cc2Cl)CCN1 |  | 23 | 0.18 | 2 | 
CCOCc1cccc(N[C@H]2CC[C@H](C(=O)N(C)c3ccc(CN4CCN[C@@H](C)C4)c(C)c3)CC2)c1 | 2.5 | 61 |  | 2.6 | 
Cc1cc(N(C)C(=O)[C@H]2CC[C@H](Oc3ccc(F)cc3)CC2)ccc1CN1CCN[C@@H](C)C1 | 2.5 | 32 | 0.21 | 2.1 | 
Cc1cc(N(C)C(=O)[C@H]2CC[C@H](Oc3ccc(F)cc3)CC2)ccc1CN1CCNCC1 |  | 82 | 1.3 | 46 | 
C[C@@H]1CN(Cc2ccc(-c3cccnc3C(=O)N3CCC(Cc4ccc(F)cc4)CC3)cc2)C[C@H](C)N1 |  |  | 3.8 | 51 | Ratio EC50 [6]: 20
Cc1cc(N(C)C(=O)[C@H]2CC[C@H](Oc3ccc(Cl)c(CO)c3)CC2)ccc1CN1CCN[C@@H](C)C1 |  | 56 | 0.13 | 1.8 | 
C[C@H]1CN(Cc2ccc(N(C)C(=O)[C@H]3CC[C@H](Oc4ccc(F)cc4)CC3)cc2)CCN1 |  | 44 | 2.6 | 55 | EC50 [5]: 28 nM
Cc1cc(N(C)C(=O)[C@H]2CC[C@H](Oc3cccc(CO)c3)CC2)ccc1CN1CCN[C@@H](C)C1 | 1.3 | 74 | 1.3 | 5.3 | Ratio EC50 [7]: 11; Papp [8]: 15 nm/s; Papp [9]: 480 nm/s; inhibition at 10 µM [10]: 13%; inhibition at 10 µM [11]: 8.8%; fraction unbound [12]: 0.335; fraction unbound [13]: 0.228; inhibition at 10 µM [14]: 3.1%; EC50 [5]: 7.3 nM; inhibition at 10 µM [15]: 5.3%
Cc1cc(N(C)C(=O)[C@H]2CC[C@H](Oc3ccc(F)c(CO)c3)CC2)ccc1CN1CCN[C@@H](C)C1 | 1.6 | 54 | 0.62 | 7.5 | 
